Columns and labels:
[1] = Measurement of the isoelectric point of the synthesized peptides; assay type: physicochemical; conditions: synthesized peptide
Source text: Among antimicrobial peptides, hBD2 (human P-defensin-2 (see Eur J., 2002, Oral Sci. (109), 121-124)) is well known as a basic antimicrobial peptide, and has an isoelectric point of about 10. However, the isoelectric points of Kog1 and Kog2 of the embodiment 2 were higher than the isoelectric point of hBD2, and more similar to the isoelectric points of antimicrobial peptides derived from mammals. Thus, Kog1 and Kog2 were confirmed to have less cytotoxicity.

[2] = test system: Porphyromonas gingivalis LPS (P.g-LPS) on RAW264.7 macrophage-like cells, ccl2; assay: LPS inactivation: ccl2 secretion of RAW264.7 cells (ELISA); assay type: cell-based, mouse
Method: (§1) As a medium, RPMI 1640 medium supplemented with 10% FBS (Fetal Bovine Serum) (Biological industries, Haemek, Israel), 1% antibiotic and 1% L-glutamine was used. In each well of a 24-well plate, 400 μl of the medium was placed, and 100,000 cells/well of mouse-derived RAW264.7 macrophage-like cells were inoculated thereto.
(§2) The bacteriocin Kog1 or Kog2, which was the same as in Example 1, was incubated in an Eppendorf tube under each of the following 4 conditions together with Porphyromonas gingivalis LPS (manufactured by InvivoGen) (hereinafter referred to as P.g-LPS) and the same medium as described above, at 37° C. under a gas phase of 5% CO2 for 2 hours: (1) 100 ng/ml P.g-LPS positive control; (2) 100 ng/ml P.g-LPS+5 μM Kog1 or Kog2; (3) 100 ng/ml P.g-LPS+10 μM Kog1 or Kog2; (4) 100 ng/ml P.g-LPS+20 μM Kog1 or Kog2.
(§3) The above-described medium placed in each well of the 24-well plate was removed using a pipetteman, and the medium in the Eppendorf tube for each of the 4 conditions described above was placed in the plate, followed by culturing the cells in the well plate at 37° C. under a gas phase of 5% CO2 for 12 hours. Thereafter, the culture supernatant was collected, and the amount of a chemokine ccl2 or the amount of a cytokine TNF-α secreted into the medium was quantified by the ELISA method by measuring the absorbance at 450 nm using a microplate reader. Since both ccl2 and TNF-α are involved in formation of inflammation, analysis of the relationship between the endotoxin LPS and the bacteriocins Kog1 and Kog2 is possible.

[3] = test system: Porphyromonas gingivalis LPS (P.g-LPS) on RAW264.7 macrophage-like cells, TNF-α; assay: LPS inactivation: TNF-α secretion of RAW264.7 cells (ELISA); assay type: cell-based
Method: as §1, §2, §3

[4] = test system: Streptococcus sobrinus B-13 strain; assay: Antimicrobial activity against Streptococcus sobrinus B-13; assay type: cell-based; conditions: tested 0 to 100 μM
Method: [The procedure below names another organism; the source lists this organism under the same test.] The Candida albicans GDH18 strain was precultured using SD medium (Difco) at 37° C. for 24 hours under aerobic conditions. The Streptococcus sobrinus B-13 strain, Streptococcus mutans NCTC10449 strain and Streptococcus mutans Ingbritt strain were precultured using TSB medium (Difco) supplemented with 5% yeast extract (Difco) at 37° C. for 24 hours under aerobic conditions. The Porphyromonas gingivalis Hudoi001 strain and Aggregatibacter actinomycetemcomitans Hudoe001 strain were precultured using BHI medium (Difco) supplemented with hemin (5 mg/L) and vitamin K3 (1 mg/L) at 37° C. for 96 hours under anaerobic conditions with Anaero Pack System (Mitsubishi Gas Chemical Company, Inc.).
After the culture, the cells of the Candida, cariogenic bacteria and periodontal disease bacteria were collected by centrifugation at 1000×g, and washed twice with 1 mM phosphate buffer (pH 6.8). The cells were then suspended such that the final concentration was 1×10^8 cfu/ml or 1×10^7 cells/m. For suspension of the Streptococcus strains, ultrasonic treatment was also carried out.
Evaluation of the antimicrobial activity was carried out by the method by Edgerton and others (1998) with some modifications. With 20 mL of 1 mM phosphate buffer containing 0 to 25 μM Kog1 or Kog2 synthesized in Example 1, 20 μl of the suspension of the Candida albicans GDH18 strain cultured and prepared by the method described in the above Preparation Example was mixed, and the resulting mixture was incubated at 37° C. for 90 minutes with shaking. As a control, 20 ml of 1 mM phosphate buffer alone was used. The reaction was stopped by addition of 360 ml of YNB medium (Difco), and the number of colonies formed (colony forming units; CFUs) was counted together with the number of colonies in the control, to determine the percentage of living bacterial cells. That is, the equation of: (CFUs of suspension containing Kog1 or Kog2/CFU ml^−1 of control suspension)×100 was used to calculate the percentage. […]

[5] = test system: Aggregatibacter actinomycetemcomitans Hudoe001 strain; assay: Antimicrobial activity against Aggregatibacter actinomycetemcomitans Hudoe001; assay type: cell-based; conditions: tested 0 to 50 μM
[6] = 100 ng/ml P.g-LPS + Kog2 above a certain level, as amount added increases
[7] = 100 ng/ml P.g-LPS + small amount of Kog2 (5 μM)

## Kog2: peptide having the amino acid sequence shown in SEQ ID NO: 2, bacteriocin of Lactobacillus rhamnosus, synthesized by the tea-bag method (MTKVRSSRLRPLTLRLLSAPARAQFLTIACRAILRYDLINS; listed as Lactobacillus rhamnosus)
[1]
  isoelectric point (pl): 12.38
[2]; [6]
  amount of the chemokine ccl2 secreted: decreases
[2]; [7]
  amount of the chemokine ccl2 secreted: increases
[3]; [6]
  amount of the cytokine TNF-α secreted: decreases
[3]; [7]
  amount of the cytokine TNF-α secreted: increases
[4]
  peptide concentration at which 100% of the strain was killed: 0.39 µM
[5]
  peptide concentration at which 100% of the strain was killed: 1.56 µM

From patent US9314498B2, “Bacteriocin derived from Lactobacillus rhamnosus” (priority 2011, dated 2016)
